# pIC50: −log10 of the molar value. Calls of active or inactive are those of the source. The rule behind the calls is not given here.
# Legend:
# [1] = biological target: T1, Estrogen receptor beta (Homo sapiens, UniProt Q92731); experiment: Antagonist activity at recombinant human GST-tagged ERbeta assessed as inhibition of E2-induced increase in fluorescein-labelled coactivator PGC1 peptide recruitment at 1 uM measured after 10 mins by LanthaScreen TR-FRET assay; conditions: filed as antagonist
# T1 sequence (Q92731 whole entry): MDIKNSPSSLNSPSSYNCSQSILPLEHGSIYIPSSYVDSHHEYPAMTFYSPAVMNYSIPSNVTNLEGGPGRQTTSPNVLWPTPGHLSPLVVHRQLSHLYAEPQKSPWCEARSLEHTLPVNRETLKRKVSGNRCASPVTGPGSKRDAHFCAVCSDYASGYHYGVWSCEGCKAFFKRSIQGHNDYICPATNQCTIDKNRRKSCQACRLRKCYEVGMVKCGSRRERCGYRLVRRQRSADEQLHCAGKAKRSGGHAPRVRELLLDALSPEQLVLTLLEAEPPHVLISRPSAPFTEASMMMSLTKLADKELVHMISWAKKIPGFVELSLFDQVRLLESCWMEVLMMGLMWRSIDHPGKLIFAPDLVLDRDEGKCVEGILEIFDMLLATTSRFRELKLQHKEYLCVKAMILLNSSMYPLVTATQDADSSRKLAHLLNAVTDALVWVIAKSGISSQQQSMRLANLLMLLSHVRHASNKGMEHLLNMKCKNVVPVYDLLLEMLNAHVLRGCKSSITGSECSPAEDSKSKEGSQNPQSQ
# [2] = biological target: T1, Estrogen receptor beta; experiment: Antagonist activity at recombinant human GST-tagged ERbeta assessed as inhibition of E2-induced increase in fluorescein-labelled coactivator PGC1 peptide recruitment at 5 uM measured after 30 mins by LanthaScreen TR-FRET assay relative to control; conditions: filed as antagonist
# [3] = biological target: T2, Estrogen receptor (Homo sapiens) (UniProt P03372); experiment: Selective estrogen receptor alpha degrader activity in human MCF7 cells assessed as down regulation of ERalpha expression at 1 uM measured after 4 hrs in presence of protease inhibitor MG-132 by Western blot analysis; type: cell-based
# T2 sequence (whole entry): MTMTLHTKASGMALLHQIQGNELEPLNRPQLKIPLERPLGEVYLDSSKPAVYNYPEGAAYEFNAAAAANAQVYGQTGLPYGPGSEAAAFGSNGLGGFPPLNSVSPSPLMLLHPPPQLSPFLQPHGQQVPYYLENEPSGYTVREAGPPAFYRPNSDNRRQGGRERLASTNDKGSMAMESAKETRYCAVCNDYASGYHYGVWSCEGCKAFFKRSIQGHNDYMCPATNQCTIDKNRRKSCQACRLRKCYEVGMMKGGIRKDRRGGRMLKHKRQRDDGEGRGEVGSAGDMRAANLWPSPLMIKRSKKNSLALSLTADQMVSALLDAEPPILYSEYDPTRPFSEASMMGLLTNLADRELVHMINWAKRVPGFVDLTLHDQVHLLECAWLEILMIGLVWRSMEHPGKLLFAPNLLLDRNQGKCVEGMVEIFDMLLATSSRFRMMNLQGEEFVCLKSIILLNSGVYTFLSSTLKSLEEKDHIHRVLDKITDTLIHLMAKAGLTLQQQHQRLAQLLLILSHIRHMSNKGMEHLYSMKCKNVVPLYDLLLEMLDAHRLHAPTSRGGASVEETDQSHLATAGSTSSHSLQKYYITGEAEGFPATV
# [4] = tested on: MCF7; experiment: Antiproliferative activity against human MCF7 cells assessed as cell mass at 10 uM measured after 72 hrs by crystal violet staining based assay relative to control; type: functional
# [5] = tested on: MCF7; experiment: Antiproliferative activity against human MCF7 cells assessed as reduction in cell metabolic activity up to 10 uM measured after 72 hrs by modified MTT based EZ4U assay; type: functional; conditions: dose microM <=10, time 72.0 hrs
# [6] = tested on: COS-7; experiment: Cytotoxicity against African green monkey COS7 cells assessed as reduction in cell metabolic activity up to 10 uM measured after 72 hrs by modified MTT based EZ4U assay; type: ADME; conditions: chlorocebus aethiops, cos-7, 72 h
# [7] = biological target: T1, Estrogen receptor beta; experiment: Agonist activity at recombinant human GST-tagged ERbeta assessed as increase in fluorescein-labelled coactivator PGC1 peptide recruitment at 1 uM by LanthaScreen TR-FRET assay
# [8] = biological target: T1, Estrogen receptor beta; experiment: Agonist activity at ERbeta (unknown origin) expressed in human U2OS cells at 0.1 to 1 uM measured after 21 hrs by dual luciferase reporter gene assay; type: cell-based; conditions: dose 0.1-1 µM
# [9] = biological target: T1, Estrogen receptor beta
# [10] = biological target: T1, Estrogen receptor beta; remark: listed apart in the source
# [11] = physchem; conditions: water
# Description: Aqueous solubility of compound in water
# [12] = Drug uptake in human MCF7 cells assessed per mg protein at 10 uM incubated for 24 hrs by fluorescence assay; type: ADME, cell-based; conditions: mcf7, 24 h
# [13] = biological target: T1, Estrogen receptor beta; experiment: Antagonist activity at recombinant human GST-tagged ERbeta assessed as inhibition of E2-induced increase in fluorescein-labelled coactivator PGC1 peptide recruitment at 100 nM measured after 30 mins by LanthaScreen TR-FRET assay relative to control; conditions: filed as antagonist
# [14] = biological target: T1, Estrogen receptor beta; experiment: Antagonist activity at recombinant human GST-tagged ERbeta assessed as inhibition of E2-induced increase in fluorescein-labelled coactivator PGC1 peptide recruitment at 1 uM measured after 10 to 30 mins by LanthaScreen TR-FRET assay relative to control; conditions: filed as antagonist, time 10-30 min
# [15] = biological target: T3, Estrogen receptor (Homo sapiens, UniProt P03372); experiment: Agonist activity at ERalpha (unknown origin) expressed in human U2OS cells at 0.1 to 1 uM measured after 21 hrs by dual luciferase reporter gene assay; type: cell-based; conditions: dose 0.1-1 µM
# T3 sequence (P03372 whole entry): T2 sequence (whole entry)
# [16] = Drug uptake in African green monkey COS7 cells assessed per mg protein at 10 uM incubated for 24 hrs by fluorescence assay; type: ADME; conditions: chlorocebus aethiops, cos-7, 24 h
# [17] = tested on: COS-7; experiment: Cytotoxicity against African green monkey COS7 cells assessed as reduction in cell metabolic activity up to 20 uM measured after 72 hrs by modified MTT based EZ4U assay; type: ADME; conditions: chlorocebus aethiops, cos-7, 72 h
# [18] = biological target: T3, Estrogen receptor
# [19] = biological target: T3, Estrogen receptor; remark: listed apart in the source
# [20] = tested on: MCF7; experiment: Antiproliferative activity against human MCF7 cells assessed as reduction in cell metabolic activity at 10 uM measured after 72 hrs by modified MTT based EZ4U assay relative to control; type: functional; parameters: scale not given: the % may be the effect or the level left
# [21] = tested on: MCF7; experiment: Antiproliferative activity against human MCF7 cells assessed as cell mass at 50 nM measured after 72 hrs by crystal violet staining based assay relative to control; type: functional
# [22] = tested on: MCF7; experiment: cells; conditions: Homo sapiens, MCF7, 72 h
# Description: Antiproliferative activity against human MCF7 cells assessed as reduction in cell mass measured after 72 hrs by crystal violet staining based assay
# [23] = tested on: COS-7; experiment: cells; conditions: Chlorocebus aethiops, COS-7, 72 h
# Description: Cytotoxicity against African green monkey COS7 cells assessed as reduction in cell mass measured after 72 hrs by crystal violet staining based assay
# [24] = tested on: MDA-MB-231; experiment: Antiproliferative activity against human MDA-MB-231 cells assessed as reduction in cell mass at 10 uM measured after 72 hrs by crystal violet staining based assay relative to control; type: functional; parameters: scale not given: the % may be the effect or the level left
# [25] = tested on: SK-BR-3; experiment: Antiproliferative activity against human SK-BR-3 cells assessed as reduction in cell mass at 10 uM measured after 72 hrs by crystal violet staining based assay relative to control; type: functional; parameters: scale not given: the % may be the effect or the level left
# [26] = tested on: MDA-MB-231; experiment: Antiproliferative activity against human MDA-MB-231 cells assessed as cell mass at 20 uM measured after 72 hrs by crystal violet staining based assay relative to control; type: functional
# [27] = tested on: SK-BR-3; experiment: Antiproliferative activity against human SK-BR-3 cells assessed as cell mass at 20 uM measured after 72 hrs by crystal violet staining based assay relative to control; type: functional
Activity [7],Activity [8],pIC50 [9],pIC50 [10],solubility [11] [µM],Activity [15],pIC50 [18],pIC50 [19],SMILES,Activity [6],inhibition [13] [%],Activity [17],further results
–,–,–,–,–,–,–,–,CC/C(=C(\c1ccc(O)cc1)c1ccc(/C=C/C(=O)O)cc1)c1ccccc1,Non-Toxic,–,–,inhibition [1]: Active; inhibition [2]: 50%; Activity [3]: inactive; T/C [4]: 33%; Activity [5]: inactive
Not Active,Not Active,7.81,6.59,34,–,–,–,CC/C(=C(/c1ccc(O)cc1)c1ccc(/C=C/C(=O)NCCCCCNC(=O)/C=C/c2ccc(/C(=C(\CC)c3ccccc3)c3ccc(O)cc3)cc2)cc1)c1ccccc1,–,–,–,–
Not Active,Not Active,7.36,6.67,19,Not Active,7.72,6.54,CC/C(=C(/c1ccc(O)cc1)c1ccc(/C=C/C(=O)NCCCCNC(=O)/C=C/c2ccc(/C(=C(\CC)c3ccccc3)c3ccc(O)cc3)cc2)cc1)c1ccccc1,–,50,Non-Toxic,Drug uptake [12]: 4.67 nmol; inhibition [14]: 100%; Drug uptake [16]: 3.92 nmol
Not Active,Not Active,7.17,7.10,> 40,Not Active,7.82,6.59,CC/C(=C(/c1ccc(O)cc1)c1ccc(/C=C/C(=O)NCCNC(=O)/C=C/c2ccc(/C(=C(\CC)c3ccccc3)c3ccc(O)cc3)cc2)cc1)c1ccccc1,–,–,Non-Toxic,–
Not Active,Not Active,7.65,6.82,24,Not Active,8.89,6.87,CC/C(=C(/c1ccc(O)cc1)c1ccc(/C=C/C(=O)NCCCNC(=O)/C=C/c2ccc(/C(=C(\CC)c3ccccc3)c3ccc(O)cc3)cc2)cc1)c1ccccc1,–,50,–,inhibition [14]: 100%; Activity [3]: Active
Not Active,Not Active,7.56,6.67,6.5,–,–,–,O=C(/C=C/c1ccc(C(=C2CCCCC2)c2ccc(O)cc2)cc1)NCCNC(=O)/C=C/c1ccc(C(=C2CCCCC2)c2ccc(O)cc2)cc1,–,–,–,–
–,–,–,–,–,–,–,–,C[C@]12CC[C@@H]3c4ccc(O)cc4C[C@@H](CCCCCCCCC[S+]([O-])CCCC(F)(F)C(F)(F)F)[C@H]3[C@@H]1CC[C@@H]2O (some centres undefined) [FULVESTRANT],–,–,Non-Toxic,T/C [4]: 75.5%; T/C [21]: 64%; pIC50 [22]: 5.31; pIC50 [23]: 4.47
–,–,–,–,–,Not Active,–,–,CC/C(=C(/c1ccc(O)cc1)c1ccc(/C=C/C(=O)NCCN)cc1)c1ccccc1.O=C(O)C(F)(F)F.O=C(O)C(F)(F)F.O=C(O)C(F)(F)F,–,–,Non-Toxic,Drug uptake [12]: 35.3 nmol; Drug uptake [16]: 33.7 nmol
–,–,–,–,–,–,–,–,CC/C(=C(/c1ccc(O)cc1)c1ccc(OCCN(C)C)cc1)c1ccccc1,–,–,Non-Toxic,Activity [24]: 79%; Activity [25]: 58%; T/C [26]: -80%; T/C [27]: -81%; pIC50 [22]: 5.31; pIC50 [23]: 5.06

SMILES,Activity [7],Activity [8],pIC50 [9],pIC50 [10],solubility [11] [µM],Activity [15],pIC50 [18],pIC50 [19],Activity [6],inhibition [13] [%],Activity [17],further results
O=C(/C=C/c1ccc(C(=C2CCCCC2)c2ccc(O)cc2)cc1)NCCCCCNC(=O)/C=C/c1ccc(C(=C2CCCCC2)c2ccc(O)cc2)cc1,–,–,–,–,10,–,–,–,Non-Toxic,–,–,Activity [20]: 50%
O=C(/C=C/c1ccc(C(=C2CCCCC2)c2ccc(O)cc2)cc1)NCCCNC(=O)/C=C/c1ccc(C(=C2CCCCC2)c2ccc(O)cc2)cc1,Not Active,Not Active,7.47,6.52,15.4,Not Active,8.78,6.25,Non-Toxic,50,–,Activity [20]: 53%
O=C(/C=C/c1ccc(C(=C2CCCCC2)c2ccc(O)cc2)cc1)NCCCCNC(=O)/C=C/c1ccc(C(=C2CCCCC2)c2ccc(O)cc2)cc1,Not Active,Not Active,7.80,7.26,10,–,–,–,Non-Toxic,50,–,Drug uptake [12]: 5.22 nmol; Drug uptake [16]: 11.7 nmol; Activity [20]: 69%

# From ChEMBL document CHEMBL4680223, “Development of bivalent triarylalkene- and cyclofenil-derived dual estrogen receptor antagonists and downregulators” (Eur J Med Chem, 2020)
